Data taken from publication PMC9921564, “Novel Indole-Containing Hybrids Derived from Millepachine: Synthesis, Biological Evaluation and Antitumor Mechanism Study” (Molecules, 2023).

Key:
[1] = tested on: RWPE-1 (human prostate epithelial cells); test: CCK-8 cytotoxicity, RWPE-1 normal cells; type: cell-based
Text: High cytotoxicity is one of the most limiting factors in chemotherapeutics.
A549 (non-small-cell-lung cancer cell line), Caski (human epithelial cervical cancer cell line), HepG2 (human liver carcinoma cell line), MCF-7 (human breast carcinoma cell line), C42B (human prostate cancer line C42B), L-02 (human normal hepatocytes), RWPE-1 (human prostate epithelial cells) and MCF-10A (human normal mammary epithelial cells) were obtained from National Collection of Authenticated Cell Cultures (Shanghai, China). […]
After 24 h, the medium containing different concentrations of tested compounds were added for another 48 h. […] The optical density was recorded with a microplate reader at 570 nm (Thermo Scientific, Varioskan LUX). All the experiments were repeated independently at least three times and the IC50 values were calculated […]
The fluorescence intensity enhancement (emission wavelength is 410 nm, excitation wavelength is 340 nm) was recorded every 60 s for 60 min in a multifunction microplate reader (Molecular Devices, Flex Station 3). […]

A549 cells = test: MMP detection by JC-1; type: cell-based, human; conditions: A549, 10, 20 and 50 nM, 12 h
Text: The intrinsic mitochondrial pathway is one of the most well-studied mechanisms relevant to cell apoptosis. ROS accumulation and mitochondrial membrane potential (MMP) alteration play crucial roles in this pathway. In this study, a fluorescent dye including DCFH-DA and JC-1 was used to monitor the intracellular ROS and MMP, respectively.
Figure 5 ROS accumulation and MMP alteration induced by compound 14b. (A,B) The intracellular ROS detection by DCFH-DA after A549 cells treated with compound 14b at indicated concentrations for 12 h. (C,D) The detection of MMP monitored by JC-1 dye after A549 cells treated with compound 14b at the concentrations of 10, 20 and 50 nM for 12 h. […]
samples were fixed in ice-cold 70% ethanol overnight and removed with ice-cold PBS for three times. […] After the incubation, the prepared cell samples were immediately analyzed. Almost 10,000 events were detected by flow cytometry (Beckman Coulter, CytoFlex LX). The data regarding the number of cells in different phases of the cell cycle were or apoptotic cells were analyzed by […]
Caspase-3 activity was measured according to the manufacturer ’s instructions using a GreenNuc™ Caspase-3 assay kit for live cells (Beyotime, China). […] After incubation, the fluorescence intensity (excitation wavelength:
485 nm, emission wavelength: 515 nm) was recorded using a multifunctional microplate reader (Thermo Scientific, Varioskan LUX). […]

## COc1ccc(C(=O)c2ccc3c(ccn3C)c2)c2c1C=CC(C)(C)O2 [compound 14b, (5-methoxy-2,2-dimethyl-2H-chromen-8-yl)(1-methyl-1H-indol-5-yl)methanone]
[1]; Homo sapiens, RWPE-1, 48 h, CCK-8, normal cells, read-out: IC50, Mean ± SE, RWPE-1
  IC50: 3.698 ± 0.036 µM
[1]; IC50 RWPE-1 / IC50 C42B
  Selectivity Ratio: 72.51
A549 cells
  MMP, ratio of JC-1 aggregates to monomers: remarkably decreased
